The target of the test is T1, human GABA A receptor α5β3γ2 (GABA Aa5) (Homo sapiens, UniProt P18507+P31644).
T1 construct: expressed in transfected cells; host or cells: HEK293 cells, transiently transfected; membranes prepared
As to the kind of experiment: [3H]flumazenil competition binding, HEK293 cells expressing human receptors. Particulars: displacement of [3H]flumazenil 0.5 nM; HEK293 transiently transfected human receptors; means of two determinations; read-out: hKi (GABA Aa5). On the procedure:
The ability of compounds present invention to bind to GABA A receptor subtypes was determined by competition for [^3H]flumazenil (85 Ci/mmol; Roche) binding to HEK293 cells expressing rat (stably transfected) or human (transiently transfected) receptors of composition α1β2/3γ2, α2β3γ2, α3β3γ2 and α5β3γ2.
Cell pellets were suspended in Krebs-tris buffer (4.8 mM KCl, 1.2 mM CaCl2, 1.2 mM MgCl2, 120 mM NaCl, 15 mM Tris; pH 7.5; binding assay buffer), homogenized by polytron for ca. 20 sec on ice and centrifuged for 60 min at 4° C. (50000 g; Sorvall, rotor: SM24=20000 rpm). The cell pellets were resuspended in Krebs-tris buffer and homogenized by polytron for ca. 15 sec on ice. Protein was measured (Bradford method, Bio-Rad) and aliquots of 1 mL were prepared and stored at −80° C.
Assays were incubated to equilibrium for 1 hour at 4° C. and harvested onto GF/C uni-filters (Packard) by filtration using a Packard harvester and washing with ice-cold wash buffer (50 mM Tris; pH 7.5). After drying, filter-retained radioactivity was detected by liquid scintillation counting.
Ki values were calculated using Excel-Fit (Microsoft) and are the means of two determinations.
Representative test results, obtained by the above described assay measuring binding affinity to HEK293 cells expressing human (h) receptors, are shown in Table 1 below.

Consider `Cc1nnn(-c2ccc(F)cc2)c1-c1cn(-c2ccc(C(F)(F)F)cn2)cn1` [Example 34, 2-{4-[3-(4-Fluoro-phenyl)-5-methyl-3H-[1,2,3]triazol-4-yl]-imidazol-1-yl}-5-trifluoromethyl-pyridine], for which the Ki was found to be 45.6 nM. Next, `Cn1nnc(-c2ccccc2F)c1-c1cn(-c2ccc([N+](=O)[O-])cc2)cn1` [Example 9, 4-(2-Fluorophenyl)-1-methyl-5-(1-(4-nitrophenyl)-1H-imidazol-4-yl)-1H-1,2,3-triazole]: 76.3 nM; `Cc1nnn(-c2ccccc2F)c1-c1cn(-c2ccc(C(=O)NC3(C)COC3)cn2)cn1` [Example 50, 6-(4-(1-(2-Fluorophenyl)-4-methyl-1H-1,2,3-triazol-5-yl)-1H-imidazol-1-yl)-N-(3-methyloxetan-3-yl)nicotinamide]: 17.9 nM. Next, `Cc1nnn(-c2ccc(F)cc2)c1-c1cn(-c2ccc(C(=O)NC3CC3)cn2)cn1` [Example 42, N-Cyclopropyl-6-(4-(1-(4-fluorophenyl)-4-methyl-1H-1,2,3-triazol-5-yl)-1H-imidazol-1-yl)nicotinamide]: 3.2 nM; `Cn1nnc(-c2ccc(F)cc2)c1-c1cn(-c2ccc(C(N)=O)cc2)cn1` [Example 7, 4-{4-[5-(4-Fluoro-phenyl)-3-methyl-3H-[1,2,3]triazol-4-yl]-imidazol-1-yl}-benzamide]: 18.8 nM. For `CC(=O)c1ccc(-n2cnc(-c3c(C)nnn3-c3ccc(F)cc3)c2)cc1` [Example 32, 1-(4-{4-[3-(4-Fluoro-phenyl)-5-methyl-3H-[1,2,3]triazol-4-yl]-imidazol-1-yl}-phenyl)-ethanone] the value was 25.9 nM; for `Cn1nnc(-c2ccc(F)cc2)c1-c1cn(-c2ccc(C(=O)N3CC4(COC4)C3)cc2)cn1` [Example 6, (4-{4-[5-(4-Fluoro-phenyl)-3-methyl-3H-[1,2,3]triazol-4-yl]-imidazol-1-yl}-phenyl)-(2-oxa-6-aza-spiro[3.3]hept-6-yl)-methanone], 51.3 nM. `Cc1nnn(-c2ccc(F)cc2)c1-c1cn(-c2ccc(C(=O)NN3CCOCC3)cn2)cn1` [Example 45, 6-(4-(1-(4-Fluorophenyl)-4-methyl-1H-1,2,3-triazol-5-yl)-1H-imidazol-1-yl)-N-morpholinonicotinamide]: the Ki came to 69.4 nM. For `COC(=O)c1ccc(-n2cnc(-c3c(-c4ccccc4Cl)nnn3C)c2)nc1` [Example 17, Methyl 6-(4-(4-(2-chlorophenyl)-1-methyl-1H-1,2,3-triazol-5-yl)-1H-imidazol-1-yl)nicotinate] the value was 68.8 nM; for `Cn1nnc(-c2ccccc2F)c1-c1cn(-c2ccc(C(=O)NCC(C)(C)O)cn2)cn1` [Example 24, 6-(4-(4-(2-Fluorophenyl)-1-methyl-1H-1,2,3-triazol-5-yl)-1H-imidazol-1-yl)-N-(2-hydroxy-2-methylpropyl)nicotinamide], 21.3 nM. Next, `COC(=O)c1ccc(-n2cnc(-c3c(-c4ccccc4F)nnn3C)c2)nc1` [Example 20, Methyl 6-(4-(4-(2-fluorophenyl)-1-methyl-1H-1,2,3-triazol-5-yl)-1H-imidazol-1-yl)nicotinate]: 16.2 nM; `Cc1nnn(-c2ccc(F)cc2)c1-c1cn(-c2ccc(C(F)(F)F)cc2)cn1` [Example 31, 1-(4-Fluoro-phenyl)-4-methyl-5-[1-(4-trifluoromethyl-phenyl)-1H-imidazol-4-yl]-1H-[1,2,3]triazole]: 49.2 nM.

Take `Cn1nnc(-c2ccccc2Cl)c1-c1cn(-c2ccc(C(N)=O)cn2)cn1` [Example 19, 6-(4-(4-(2-Chlorophenyl)-1-methyl-1H-1,2,3-triazol-5-yl)-1H-imidazol-1-yl)nicotinamide]: the Ki is 66.2 nM. As for `Cn1nnc(-c2ccc(F)cc2)c1-c1cn(-c2ccc(C(=O)NC3(C)COC3)cn2)cn1` [Example 13, 6-{4-[5-(4-Fluoro-phenyl)-3-methyl-3H-[1,2,3]triazol-4-yl]-imidazol-1-yl}-N-(3-methyl-oxetan-3-yl)-nicotinamide], the Ki is 14.6 nM.

`Cc1nnn(-c2ccccc2F)c1-c1cn(-c2ccc(C(=O)NC(C)C)cn2)cn1` [Example 43, 6-(4-(1-(2-Fluorophenyl)-4-methyl-1H-1,2,3-triazol-5-yl)-1H-imidazol-1-yl)-N-isopropylnicotinamide]: the Ki worked out at 15.1 nM. For `Cc1nnn(-c2ccccc2F)c1-c1cn(-c2ccc(C(N)=O)cn2)cn1` [Example 48, 6-(4-(1-(2-Fluorophenyl)-4-methyl-1H-1,2,3-triazol-5-yl)-1H-imidazol-1-yl)nicotinamide] the value was 17.8 nM; for `CC(C)NC(=O)c1ccc(-n2cnc(-c3c(-c4ccccc4Cl)nnn3C)c2)nc1` [Example 18, 6-(4-(4-(2-Chlorophenyl)-1-methyl-1H-1,2,3-triazol-5-yl)-1H-imidazol-1-yl)-N-isopropylnicotinamide], 75.1 nM.

`Cn1nnc(-c2ccccc2F)c1-c1cn(-c2ccc(C(F)(F)F)cn2)cn1` [Example 30, 2-(4-(4-(2-Fluorophenyl)-1-methyl-1H-1,2,3-triazol-5-yl)-1H-imidazol-1-yl)-5-(trifluoromethyl)pyridine]: the Ki came out at 65 nM.

Regarding `Cn1nnc(-c2ccc(F)cc2)c1-c1cn(-c2ccc(C(=O)NC3CCOCC3)cn2)cn1` [Example 12, 6-{4-[5-(4-Fluoro-phenyl)-3-methyl-3H-[1,2,3]triazol-4-yl]-imidazol-1-yl}-N-(tetrahydropyran-4-yl)-nicotinamide], the Ki was 33 nM. Next, `Cn1nnc(-c2ccccc2F)c1-c1cn(-c2ccc(C(=O)NN3CCOCC3)cn2)cn1` [Example 28, 6-(4-(4-(2-Fluorophenyl)-1-methyl-1H-1,2,3-triazol-5-yl)-1H-imidazol-1-yl)-N-morpholinonicotinamide]: 32.4 nM. For `Cn1nnc(-c2ccc(F)cc2)c1-c1cn(-c2ccc(C(F)(F)F)cn2)cn1` [Example 15, 2-{4-[5-(4-Fluoro-phenyl)-3-methyl-3H-[1,2,3]triazol-4-yl]-imidazol-1-yl}-5-trifluoromethyl-pyridine] the value was 82.2 nM; for `Cn1nnc(-c2ccccc2F)c1-c1cn(-c2ccc(C(=O)O)cn2)cn1` [Example 21, 6-(4-(4-(2-Fluorophenyl)-1-methyl-1H-1,2,3-triazol-5-yl)-1H-imidazol-1-yl)nicotinic acid], 86 nM; for `COC(=O)c1ccc(-n2cnc(-c3c(C)nnn3-c3ccc(F)cc3)c2)nc1` [Example 35, Methyl 6-(4-(1-(4-fluorophenyl)-4-methyl-1H-1,2,3-triazol-5-yl)-1H-imidazol-1-yl)nicotinate], 26.3 nM. Next, `Cc1nnn(-c2ccc(F)cc2)c1-c1cn(-c2ccc(C(=O)N3CCS(=O)(=O)CC3)cn2)cn1` [Example 44, (1,1-Dioxo-1,6-thiomorpholin-4-yl)-(6-{4-[3-(4-fluoro-phenyl)-5-methyl-3H-[1,2,3]triazol-4-yl]-imidazol-1-yl}-pyridin-3-yl)-methanone]: 29 nM; `CC(=O)c1ccc(-n2cnc(-c3c(-c4ccc(F)cc4)nnn3C)c2)cc1` [Example 1, 1-(4-{4-[5-(4-Fluoro-phenyl)-3-methyl-3H-[1,2,3]triazol-4-yl]-imidazol-1-yl}-phenyl)-ethanone]: 27.2 nM; `Cc1nnn(-c2ccc(F)cc2)c1-c1cn(-c2ccc(C(=O)NC(C)(C)CO)cn2)cn1` [Example 41, 6-(4-(1-(4-Fluorophenyl)-4-methyl-1H-1,2,3-triazol-5-yl)-1H-imidazol-1-yl)-N-(1-hydroxy-2-methylpropan-2-yl)nicotinamide]: 20.8 nM. For `Cn1nnc(-c2ccccc2F)c1-c1cn(-c2ccc(C(N)=O)cn2)cn1` [Example 25, 6-(4-(4-(2-Fluorophenyl)-1-methyl-1H-1,2,3-triazol-5-yl)-1H-imidazol-1-yl)nicotinamide], the Ki was determined as 19.3 nM. As to `CC(C)NC(=O)c1ccc(-n2cnc(-c3c(-c4ccc(F)cc4)nnn3C)c2)cc1` [Example 3, 4-{4-[5-(4-Fluoro-phenyl)-3-methyl-3H-[1,2,3]triazol-4-yl]-imidazol-1-yl}-N-isopropyl-benzamide], the Ki is 21.1 nM.
